According to patent US8568755B2 (priority 2007, dated 2013):
“And” between values parts separate entries of the source, which are not always exact repeats. Equal entries are not always repeated. Where two headings read alike, the source gives them in different places.

Tests used:
Erysiphe graminis = test: Test on preventive effect against wheat powdery mildew (Test Example 1); assay type: in vivo
Septoria nodorum = test: Test on preventive effect against wheat glum bloth (Test Example 3); assay type: in vivo
Method: Wheat (cultivar: Norin-61-go) was cultivated in a plastic pot having a diameter of 7.5 cm, and when it reached 1.5-leaf stage, a mixed chemical solution having the respective sample compounds adjusted to prescribed concentrations, was applied by a spray gun in an amount of 10 ml per seedling. After the chemical solution dried, a suspension of conidia of Septoria nodorum was sprayed and inoculated and maintained at 20° C. for 7 days (for the first 3 days maintained under high humidity condition). Thereafter, the area of lesions was investigated, and the diseased area ratio to non-treated section was obtained by the following equation. Diseased area ratio to non-treated section=(a/b)×100
a: Average area of lesions in treated section
b: Average area of lesions in non-treated section
Further, the theoretical value was calculated by a Colby's formula and shown in brackets ( ) in Tables 3-1 to 3-14. Since the diseased area ratio to non-treated section (experimental value) is lower than the theoretical value, the composition of the present invention can be said to have a synergistic effect.

Botrytis cinerea [1] = test: Test on preventive effect against kidney bean gray mold (Test Example 4); assay type: in vivo
Method: Kidney bean (cultivar: Taisyou Kintoki) was cultivated in a plastic pot having a diameter of 12.0 cm, and when it reached 2.5-leaf stage, a mixed chemical solution having the respective test compounds adjusted to prescribed concentrations, was applied by a spray gun in an amount of 10 ml per seedling. After the chemical solution dried, the leaf was cut out, and a filter paper disk (8 mm in diameter) was placed on the leaf. Then, 120 μl of a suspension of spores of Botrytis cinerea (1.0×10^6 spores/ml) was dropped thereon and inoculated. The system was maintained under a humidity condition at 20° C. for three days, whereupon the area of lesions was investigated, and the diseased area ratio to non-treated section was obtained in the same manner as in Test Example 3. Further, the theoretical value was calculated by a Colby's formula and shown in brackets ( ) in Tables 4-1 to 4-19. Since the diseased area ratio to non-treated section (experimental value) is lower than the theoretical value, the composition of the present invention can be said to have a synergistic effect.

Phyicularia oryzae = assay type: cell-based
Botrytis cinerea [2] = test: Test on antifungal activity against gray mold pathogen, intersecting filter papers (Test Examples 7 and 8); assay type: cell-based; details: for controlling effect (contact of filter paper with mycelial growth area of Botrytis cinerea): single use, filter paper immersed in 30 ppm solution, 20° C. for 4 days; for distance from both ends of the filter paper to mycelial growth area of Botrytis cinerea (average): single use section, 30 ppm
Sphaerotheca fuliginea = assay type: in vivo
Botrytis cinerea [3] = test: Test on antifungal activity against gray mold pathogen, mycelial growth on agar (Test Example 6); assay type: cell-based
Method: Mycelial growth of Botrytis cinerea preliminarily obtained by cultivation was punched out by a cork borer having a diameter of 4 mm and transplanted on a potato sucrose agar medium containing mixed chemical agents adjusted to prescribed concentrations. The system was left to stand at 25° C. for 3 days for cultivation, whereupon the diameter of mycelial growth was measured. The incidence to non-treated section was obtained in the same manner as the above Test Example 5, and the results are shown in Table 6-1 to 6-3.
Further, the theoretical value was calculated by a Colby's formula and shown in brackets ( ) in Tables 6-1 to 6-3. Since the incidence to non-treated section is lower than the theoretical value, the composition of the present invention can be said to have a synergistic effect.

| SMILES | diseased area ratio to non-treated section (Erysiphe graminis; Compound (a) alone 250 ppm) | diseased area ratio to non-treated section (experimental value) (Septoria nodorum; single use at 12.5 ppm) | diseased area ratio to non-treated section (experimental value) (Septoria nodorum; single use at 50 ppm) | diseased area ratio to non-treated section (experimental value) (Botrytis cinerea [1]; single use at 4 ppm) | incidence to non-treated section (mycelial growth diameter) (Phyicularia oryzae) | diseased area ratio to non-treated section (experimental value) (Botrytis cinerea [1]; single use at 8 ppm) | also measured |
| --- | --- | --- | --- | --- | --- | --- | --- |
| Cc1ccsc1C(=O)NC(C)(C)C(=O)c1ccc(Cl)c(Cl)c1 [Compound No. 2, N-[(3′,4′-dichloro-1,1-dimethyl)phenacyl]-3-methyl-2-thiophenecarboxamide] | 95.0 and 75.0 | 50.0 | 35.0 | 65.0 | 82.6 | – | diseased area ratio to non-treated section (Erysiphe graminis; Compound (a) alone 125 ppm): 97.5 and 90.0; diseased area ratio to non-treated section (Erysiphe graminis; Compound (a) alone 500 ppm): 70.0; controlling effect (contact of filter paper with mycelial growth area of Botrytis cinerea) (Botrytis cinerea [2]): no adequate controlling effect |
| Cc1cc(OC(C)C)ccc1C(=O)C(C)(C)NC(=O)c1ncccc1C(F)(F)F [Compound No. 4, N-[[2′-methyl-4′-(2-propyloxy)-1,1-dimethyl]phenacyl]-3-trifluoromethyl-2-pyridinecarboxamide] | 0.6 | 35.0 | 20.0 | 70.0 and 79.7 | 69.6 and 71.7 | 64.6 | diseased area ratio to non-treated section (Erysiphe graminis; Compound (a) alone 125 ppm): 5.0 and 3.6; diseased area ratio to non-treated section (Sphaerotheca fuliginea; Compound (a) alone 2 ppm): 7.5; incidence to non-treated section (mycelial growth diameter) (Botrytis cinerea [3]; single use at 0.5 ppm): 45.2 |
| Cc1cc(OC(C)C)ccc1C(=O)C(C)(C)NC(=O)c1sccc1C [Compound No. 5, N-[[2′-methyl-4′-(2-propyloxy)-1,1-dimethyl]phenacyl]-3-methyl-2-thiophenecarboxamide] | 0.6 | 30.0 | 20.0 | 74.0 and 83.5 | – | 74.7 | incidence to non-treated section (mycelial growth diameter) (Botrytis cinerea [3]; single use at 5 ppm): 32.3 |
| CCCC(C)Oc1ccc(C(=O)C(C)(C)NC(=O)c2ncccc2C(F)(F)F)cc1 (stereo not drawn) [Compound No. 11, N-[[4′-(2-pentyloxy)-1,1-dimethyl]phenacyl]-3-trifluoromethyl-2-pyridinecarboxamide] | – | 50.0 | 25.0 | 70.0 | 63.0 and 73.9 | 55.7 | diseased area ratio to non-treated section (experimental value) (Sphaerotheca fuliginea; single use at 2 ppm): 7.5 and 12.5 and 15.0 and 10.0; incidence to non-treated section (mycelial growth diameter) (Botrytis cinerea [3]; single use at 5 ppm): 46.0; incidence to non-treated section (mycelial growth diameter) (Botrytis cinerea [3]; single use at 50 ppm): 32.3 |
| O=C1C2CC=CCC2C(=O)N1SC(Cl)(Cl)Cl (stereo not drawn) [captan] | – | – | – | – | – | – | incidence to non-treated section (mycelial growth diameter) (Botrytis cinerea [3]; single use at 1 ppm): 94.4 |
| C/C(=N/Nc1nc(C)cc(C)n1)c1ccccc1C [ferimzone] | – | – | – | – | – | – | incidence to non-treated section (mycelial growth diameter) (Phyicularia oryzae; single use at 0.5 ppm): 10.9 |
| O=[N+]([O-])c1cc(C(F)(F)F)c(Cl)c([N+](=O)[O-])c1Nc1ncc(C(F)(F)F)cc1Cl [fluazinam, reference compound] | – | – | – | – | – | – | diseased area ratio to non-treated section (Sphaerotheca fuliginea; partner fungicide alone 125 ppm): 17.5; diseased area ratio to non-treated section (Sphaerotheca fuliginea; partner fungicide alone 250 ppm): 4.0; diseased area ratio to non-treated section (Sphaerotheca fuliginea; partner fungicide alone 500 ppm): 2.0; distance from both ends of the filter paper to mycelial growth area of Botrytis cinerea (average) (Botrytis cinerea [2]): 5 mm; controlling effect (contact of filter paper with mycelial growth area of Botrytis cinerea) (Botrytis cinerea [2]): a certain controlling effect |
| CC1(C)COC(C)(CCCc2ccc(Cl)cc2)N1C(=O)n1ccnc1.CC1(C)COC(C)(CCCc2ccc(Cl)cc2)N1C(=O)n1ccnc1.O=C(O)/C=C/C(=O)O (stereo not drawn) [oxpoconazole fumarate] | – | – | – | – | – | – | distance from both ends of the filter paper to mycelial growth area of Botrytis cinerea (average) (Botrytis cinerea [2]): 7.5 mm |
